Laboratory results published in patent publication US9688654B2, “Compounds inhibiting leucine-rich repeat kinase enzyme activity” (Merck Sharp & Dohme Corp., priority 2013, dated 2017).
One block for each compound: values may come before it.

Assays:
Format in all cases: biochemical
[1] = biological target: T1, LRRK2 (G2019S mutation, GST-LRRK2 (amino acids 970-2527)) (Homo sapiens, UniProt Q5S007, G2019S); experiment: LRRK2 Km ATP LanthaScreen Assay; settings: mean IC50
T1 construct: GST-LRRK2 (amino acids 970-2527); GST (N); purchased Life Technologies Corporation
T1 sequence (Q5S007 970-2527 G2019S): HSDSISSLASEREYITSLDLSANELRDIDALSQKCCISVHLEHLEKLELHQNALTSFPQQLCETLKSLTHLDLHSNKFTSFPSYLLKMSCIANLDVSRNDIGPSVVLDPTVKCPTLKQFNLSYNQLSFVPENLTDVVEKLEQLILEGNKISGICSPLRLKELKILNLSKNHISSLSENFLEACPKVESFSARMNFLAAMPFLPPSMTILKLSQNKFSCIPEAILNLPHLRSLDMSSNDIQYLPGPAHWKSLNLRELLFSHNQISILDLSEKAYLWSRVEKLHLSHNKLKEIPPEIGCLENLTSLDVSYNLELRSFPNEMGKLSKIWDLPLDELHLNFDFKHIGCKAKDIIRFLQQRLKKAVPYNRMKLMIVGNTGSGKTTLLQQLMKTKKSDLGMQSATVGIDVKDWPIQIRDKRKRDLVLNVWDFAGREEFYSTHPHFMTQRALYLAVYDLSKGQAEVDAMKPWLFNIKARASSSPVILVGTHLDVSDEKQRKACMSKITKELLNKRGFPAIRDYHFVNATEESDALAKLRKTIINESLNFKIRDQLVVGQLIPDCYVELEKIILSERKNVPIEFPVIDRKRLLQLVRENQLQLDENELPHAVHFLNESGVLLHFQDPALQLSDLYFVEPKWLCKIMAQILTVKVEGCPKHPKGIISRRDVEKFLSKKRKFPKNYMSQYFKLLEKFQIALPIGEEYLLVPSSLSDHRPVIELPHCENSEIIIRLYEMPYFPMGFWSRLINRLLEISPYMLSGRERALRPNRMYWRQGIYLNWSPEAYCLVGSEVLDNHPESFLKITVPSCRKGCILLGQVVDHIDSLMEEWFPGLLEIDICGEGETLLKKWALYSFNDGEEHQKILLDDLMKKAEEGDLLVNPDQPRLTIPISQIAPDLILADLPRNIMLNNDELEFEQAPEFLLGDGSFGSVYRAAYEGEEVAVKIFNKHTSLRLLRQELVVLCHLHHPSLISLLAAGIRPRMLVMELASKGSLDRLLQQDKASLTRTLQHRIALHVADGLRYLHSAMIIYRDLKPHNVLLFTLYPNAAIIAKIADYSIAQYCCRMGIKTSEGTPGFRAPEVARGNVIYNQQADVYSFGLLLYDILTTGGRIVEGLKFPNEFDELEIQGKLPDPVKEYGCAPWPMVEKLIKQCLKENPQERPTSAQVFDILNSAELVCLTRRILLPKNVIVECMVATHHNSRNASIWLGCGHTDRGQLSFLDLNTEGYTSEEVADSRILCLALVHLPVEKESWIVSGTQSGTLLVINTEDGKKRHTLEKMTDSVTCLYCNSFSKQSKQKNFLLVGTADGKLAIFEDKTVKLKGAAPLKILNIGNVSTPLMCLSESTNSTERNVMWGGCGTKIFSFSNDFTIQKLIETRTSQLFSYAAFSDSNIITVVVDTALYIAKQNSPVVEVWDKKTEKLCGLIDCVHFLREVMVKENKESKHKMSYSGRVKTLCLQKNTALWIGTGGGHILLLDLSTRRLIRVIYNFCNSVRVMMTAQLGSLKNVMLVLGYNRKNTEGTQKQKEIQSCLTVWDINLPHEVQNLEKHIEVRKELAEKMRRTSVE
Procedure: Unless otherwise noted, all LRRK2 IC50 data presented in tables refers to the LRRK2 Km ATP LanthaScreen™ Assay that is described in the Biological Assay section.
The data presented for the 5 mM and Km ATP LanthaScreen™ Assay represents mean IC50 values based on several test results and may have reasonable. deviations depending on the specific conditions and reagents used. Reagents for the LRRK2 5 mM and Km ATP LanthaScreen™ Assay were purchased from Life Technologies Corporation.
• a) 400 nl of a 1:2.15 serial dilution of test compound (98 μM top assay concentration) is spotted via Labcyte Echo to certain wells in a 384 well black, untreated plate. Control wells contain 400 nl of either DMSO or 400 nl of a known inhibitor in DMSO. • b) 10 μl of a 2.5 nM LRRK2 (G2019S mutation, GST-LRRK2 (amino acids 970-2527)) enzyme solution in 1× assay buffer (50 mM Tris pH 8.5, 10 mM MgCl2, 0.01% Brij-35, 1.0 mM EGTA, 2 mM DTT, 0.05 mM NaVO4) is added to all wells. • c) A 30 minute room temperature incubation is followed by addition of 10 μl […]) After a 35 minute room temperature incubation, 20 μl of TR-FRET Dilution Buffer (Invitrogen PV3756B) containing 4 nM Tb-labeled anti-phospho LRRKtide antibody and 20 mM EDTA is added to all wells. • e) Plates are incubated at room temperature for 1 hour and read on an Envision™ multi-mode plate reader with LanthaScreen™ settings. Results are analysed using Assay Data Analyzer. […] Results are analysed using Assay Data Analyzer.

JAK3 = biological target: T2, JAK3 (Homo sapiens, UniProt P52333); experiment: Kinase selectivity, Z'-LYTE platform; settings: 1 micromolar compound, read-out: percent inhibition JAK3
T2 construct: purchased Life Technologies Corporation
T2 sequence (P52333 1-1124): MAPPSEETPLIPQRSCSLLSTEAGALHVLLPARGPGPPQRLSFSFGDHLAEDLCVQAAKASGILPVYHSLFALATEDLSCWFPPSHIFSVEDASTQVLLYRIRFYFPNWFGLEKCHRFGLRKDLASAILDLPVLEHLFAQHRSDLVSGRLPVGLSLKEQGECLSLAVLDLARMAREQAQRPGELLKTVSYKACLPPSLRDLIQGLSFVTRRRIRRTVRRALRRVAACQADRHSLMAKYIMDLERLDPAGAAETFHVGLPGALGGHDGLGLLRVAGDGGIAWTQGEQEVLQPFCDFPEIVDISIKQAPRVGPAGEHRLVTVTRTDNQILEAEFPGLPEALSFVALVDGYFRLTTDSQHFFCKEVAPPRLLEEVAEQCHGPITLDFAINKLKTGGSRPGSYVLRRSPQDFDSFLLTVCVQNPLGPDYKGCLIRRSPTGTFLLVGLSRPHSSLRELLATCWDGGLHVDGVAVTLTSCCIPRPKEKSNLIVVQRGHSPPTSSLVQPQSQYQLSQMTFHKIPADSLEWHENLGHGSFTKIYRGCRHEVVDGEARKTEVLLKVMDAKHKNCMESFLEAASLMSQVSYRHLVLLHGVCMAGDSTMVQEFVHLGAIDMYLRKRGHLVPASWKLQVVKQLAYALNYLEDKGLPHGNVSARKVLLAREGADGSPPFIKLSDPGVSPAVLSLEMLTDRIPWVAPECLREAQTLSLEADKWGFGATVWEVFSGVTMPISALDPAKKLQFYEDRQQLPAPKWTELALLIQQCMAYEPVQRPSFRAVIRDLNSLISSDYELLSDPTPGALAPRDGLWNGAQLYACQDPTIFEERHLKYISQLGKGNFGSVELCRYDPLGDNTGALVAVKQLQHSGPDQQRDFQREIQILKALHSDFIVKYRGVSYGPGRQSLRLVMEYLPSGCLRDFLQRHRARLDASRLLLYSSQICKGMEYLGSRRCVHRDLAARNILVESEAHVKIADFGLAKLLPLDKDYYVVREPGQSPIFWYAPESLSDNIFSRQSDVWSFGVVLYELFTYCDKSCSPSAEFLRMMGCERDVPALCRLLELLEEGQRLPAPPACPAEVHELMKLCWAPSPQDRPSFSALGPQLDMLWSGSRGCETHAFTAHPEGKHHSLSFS

CDK1/cyclin B = biological target: T3, CDK1/cyclin B (Homo sapiens, UniProt P06493); experiment: Kinase selectivity, Z'-LYTE platform; settings: 1 micromolar compound, read-out: percent inhibition CDK1/cyclin B
T3 construct: purchased Life Technologies Corporation
T3 sequence (P06493 whole entry): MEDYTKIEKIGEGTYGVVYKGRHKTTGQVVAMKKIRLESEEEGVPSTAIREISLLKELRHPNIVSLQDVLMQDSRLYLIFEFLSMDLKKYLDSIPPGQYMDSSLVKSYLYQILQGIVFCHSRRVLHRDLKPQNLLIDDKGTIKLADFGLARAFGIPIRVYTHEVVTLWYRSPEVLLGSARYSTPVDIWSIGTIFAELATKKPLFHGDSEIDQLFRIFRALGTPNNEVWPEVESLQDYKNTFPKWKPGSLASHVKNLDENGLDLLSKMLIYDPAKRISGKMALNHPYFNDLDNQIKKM
T3 sequence (P14635 whole entry partner): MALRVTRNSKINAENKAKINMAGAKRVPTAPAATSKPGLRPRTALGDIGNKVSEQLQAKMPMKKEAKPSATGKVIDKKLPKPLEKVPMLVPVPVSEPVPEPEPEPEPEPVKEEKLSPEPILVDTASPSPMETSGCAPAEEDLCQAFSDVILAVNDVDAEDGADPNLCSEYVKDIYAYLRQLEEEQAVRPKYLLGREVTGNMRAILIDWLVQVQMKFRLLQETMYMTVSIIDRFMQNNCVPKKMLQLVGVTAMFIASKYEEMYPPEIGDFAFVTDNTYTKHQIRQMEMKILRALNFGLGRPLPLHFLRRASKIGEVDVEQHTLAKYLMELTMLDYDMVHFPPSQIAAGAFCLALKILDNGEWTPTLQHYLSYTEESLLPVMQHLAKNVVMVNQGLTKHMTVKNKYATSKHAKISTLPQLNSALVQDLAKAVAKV

BRAF V599E = biological target: T4, BRAF V599E (Homo sapiens, UniProt P15056, V600E); experiment: Kinase selectivity, Z'-LYTE platform; settings: 1 micromolar compound, read-out: percent inhibition BRAF V599E
T4 construct: purchased Life Technologies Corporation

CLK2 = biological target: T5, CLK2 (Homo sapiens, UniProt P49760); experiment: Kinase selectivity, Z'-LYTE platform; settings: 1 micromolar compound, read-out: percent inhibition CLK2
T5 construct: purchased Life Technologies Corporation
T5 sequence (P49760 whole entry): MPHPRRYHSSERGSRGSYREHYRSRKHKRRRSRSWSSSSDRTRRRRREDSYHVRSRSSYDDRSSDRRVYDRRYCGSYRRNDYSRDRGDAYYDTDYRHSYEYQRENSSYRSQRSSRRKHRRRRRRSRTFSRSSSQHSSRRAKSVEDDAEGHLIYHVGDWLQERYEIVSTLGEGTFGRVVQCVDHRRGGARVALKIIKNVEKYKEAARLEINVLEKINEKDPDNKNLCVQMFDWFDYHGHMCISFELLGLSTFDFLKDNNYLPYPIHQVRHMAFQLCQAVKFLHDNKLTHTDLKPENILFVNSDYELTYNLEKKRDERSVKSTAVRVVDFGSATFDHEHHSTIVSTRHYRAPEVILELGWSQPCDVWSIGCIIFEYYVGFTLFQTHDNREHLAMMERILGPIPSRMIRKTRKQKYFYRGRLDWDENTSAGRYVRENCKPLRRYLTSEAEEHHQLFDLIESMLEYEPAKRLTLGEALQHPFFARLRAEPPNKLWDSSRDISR

MAPK1 (ERK2) = biological target: T6, MAPK1 (ERK2) (Homo sapiens, UniProt P28482); experiment: Kinase selectivity, Z'-LYTE platform; settings: 1 micromolar compound, read-out: percent inhibition MAPK1 (ERK2)
T6 construct: purchased Life Technologies Corporation

AURKB (Aurora B) = biological target: T7, AURKB (Aurora B) (Homo sapiens, UniProt Q96GD4); experiment: Kinase selectivity, Z'-LYTE platform; settings: 1 micromolar compound, read-out: percent inhibition AURKB (Aurora B)
T7 construct: purchased Life Technologies Corporation
T7 sequence (Q96GD4 whole entry): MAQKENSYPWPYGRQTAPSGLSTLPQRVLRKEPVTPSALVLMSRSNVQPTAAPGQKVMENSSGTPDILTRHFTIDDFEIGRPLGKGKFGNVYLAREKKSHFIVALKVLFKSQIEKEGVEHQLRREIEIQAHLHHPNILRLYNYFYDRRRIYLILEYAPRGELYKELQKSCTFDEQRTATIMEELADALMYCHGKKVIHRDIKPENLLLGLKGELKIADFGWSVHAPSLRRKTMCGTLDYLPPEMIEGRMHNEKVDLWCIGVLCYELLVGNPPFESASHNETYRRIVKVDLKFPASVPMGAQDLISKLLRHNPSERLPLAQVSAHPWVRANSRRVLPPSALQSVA

MAPK8 (JNK1) = biological target: T8, MAPK8 (JNK1) (Homo sapiens, UniProt P45983); experiment: Kinase selectivity, Z'-LYTE platform; settings: 1 micromolar compound, read-out: percent inhibition MAPK8 (JNK1)
T8 construct: purchased Life Technologies Corporation
T8 sequence (P45983 whole entry): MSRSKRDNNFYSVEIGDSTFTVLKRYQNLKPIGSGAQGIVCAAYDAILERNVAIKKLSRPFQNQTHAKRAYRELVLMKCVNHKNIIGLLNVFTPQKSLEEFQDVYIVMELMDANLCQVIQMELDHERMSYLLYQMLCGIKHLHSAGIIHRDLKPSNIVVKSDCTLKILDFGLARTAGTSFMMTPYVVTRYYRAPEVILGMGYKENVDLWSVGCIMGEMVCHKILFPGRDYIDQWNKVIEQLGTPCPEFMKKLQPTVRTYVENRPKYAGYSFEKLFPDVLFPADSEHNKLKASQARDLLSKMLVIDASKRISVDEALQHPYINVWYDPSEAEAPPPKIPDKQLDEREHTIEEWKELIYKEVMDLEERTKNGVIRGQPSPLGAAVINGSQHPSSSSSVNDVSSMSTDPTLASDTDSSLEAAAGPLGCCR

CHEK2 (CHK2) = biological target: T9, CHEK2 (CHK2) (Homo sapiens, UniProt O96017); experiment: Kinase selectivity, Z'-LYTE platform; settings: 1 micromolar compound, read-out: percent inhibition CHEK2 (CHK2)
T9 construct: purchased Life Technologies Corporation
T9 sequence (O96017 whole entry): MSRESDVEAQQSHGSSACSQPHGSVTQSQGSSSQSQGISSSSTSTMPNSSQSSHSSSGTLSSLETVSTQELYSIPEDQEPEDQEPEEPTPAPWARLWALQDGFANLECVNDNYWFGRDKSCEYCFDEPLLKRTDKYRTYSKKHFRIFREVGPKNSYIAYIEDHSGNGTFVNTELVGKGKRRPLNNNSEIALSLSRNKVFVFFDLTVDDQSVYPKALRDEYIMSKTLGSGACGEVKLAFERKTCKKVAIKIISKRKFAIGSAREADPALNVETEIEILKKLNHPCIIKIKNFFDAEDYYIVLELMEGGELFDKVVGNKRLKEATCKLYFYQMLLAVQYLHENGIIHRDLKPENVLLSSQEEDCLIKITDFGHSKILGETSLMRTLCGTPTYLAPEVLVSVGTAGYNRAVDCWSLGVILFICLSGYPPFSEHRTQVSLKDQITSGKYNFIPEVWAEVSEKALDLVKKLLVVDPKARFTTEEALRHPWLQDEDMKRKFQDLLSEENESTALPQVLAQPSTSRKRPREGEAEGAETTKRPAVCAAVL

DYRK1A = biological target: T10, DYRK1A (Homo sapiens, UniProt Q13627); experiment: Kinase selectivity, Z'-LYTE platform; settings: 1 micromolar compound, read-out: percent inhibition DYRK1A
T10 construct: purchased Life Technologies Corporation

IRAK1 = biological target: T11, IRAK1 (Homo sapiens, UniProt P51617); experiment: Kinase selectivity, Adapta platform; settings: 1 micromolar compound, read-out: percent inhibition IRAK1
T11 construct: purchased Life Technologies Corporation
T11 sequence (P51617 whole entry): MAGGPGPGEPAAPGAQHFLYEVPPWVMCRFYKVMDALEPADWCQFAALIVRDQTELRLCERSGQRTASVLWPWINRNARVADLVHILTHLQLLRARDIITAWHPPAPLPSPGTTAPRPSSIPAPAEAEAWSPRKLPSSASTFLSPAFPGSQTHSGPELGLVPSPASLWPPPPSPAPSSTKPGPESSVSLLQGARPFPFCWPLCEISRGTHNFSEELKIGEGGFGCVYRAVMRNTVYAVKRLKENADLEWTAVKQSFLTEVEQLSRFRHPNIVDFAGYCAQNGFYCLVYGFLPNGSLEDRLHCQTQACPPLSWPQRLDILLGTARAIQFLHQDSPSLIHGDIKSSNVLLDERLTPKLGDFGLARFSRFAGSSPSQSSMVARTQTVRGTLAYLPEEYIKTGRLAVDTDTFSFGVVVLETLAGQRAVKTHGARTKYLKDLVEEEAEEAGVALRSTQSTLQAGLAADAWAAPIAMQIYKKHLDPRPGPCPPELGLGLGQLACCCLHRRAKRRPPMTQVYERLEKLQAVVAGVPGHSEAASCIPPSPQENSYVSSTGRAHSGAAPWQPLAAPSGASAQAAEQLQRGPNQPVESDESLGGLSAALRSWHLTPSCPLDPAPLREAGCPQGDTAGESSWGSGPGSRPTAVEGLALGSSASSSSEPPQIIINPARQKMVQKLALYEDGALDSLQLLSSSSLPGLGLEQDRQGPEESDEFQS

IC50 [1]: 71 nM
SMILES: O=S1(=O)CCCN(c2cc(-c3n[nH]c4ccc(OC5CC5)cc34)ccn2)CC1 [Example 16]

IC50 [1]: 67 nM
SMILES: CC1(Oc2ccc3[nH]nc(-c4ccnc(N5C6CCC5COC6)c4)c3c2)CC1 [Example 5]

IC50 [1]: 1.2 nM
SMILES: Fc1cc2[nH]nc(-c3ccnc(N4CCOCC4)c3)c2cc1OC1CC1 [Example 3]

IC50 [1]: 111 nM
SMILES: O=S1(=O)CC2CC(C1)N(c1cc(-c3n[nH]c4ccc(OC5CC5)cc34)ccn1)C2 (stereo not drawn) [Example 11]

IC50 [1]: 23 nM
SMILES: CC1(Oc2ccc3[nH]nc(-c4ccnc(N5CC6CCC(C5)O6)c4)c3c2)CC1 [Example 4]

inhibition at 1 µM (JAK3): 46%
IC50 [1]: 0.6 nM
inhibition at 1 µM (CDK1/cyclin B): 26%
inhibition at 1 µM (BRAF V599E): 18%
inhibition at 1 µM (CLK2): 53%
inhibition at 1 µM (MAPK1 (ERK2)): 18%
inhibition at 1 µM (AURKB (Aurora B)): 11%
inhibition at 1 µM (MAPK8 (JNK1)): 54%
inhibition at 1 µM (CHEK2 (CHK2)): 2%
inhibition at 1 µM (DYRK1A): 4%
inhibition at 1 µM (IRAK1): 8%
SMILES: C[C@@H]1CN(c2cc(-c3n[nH]c4ccc(OC5(C)CC5)cc34)ccn2)CCO1 [Example 29]

inhibition at 1 µM (JAK3): 49%
IC50 [1]: 0.6 nM
inhibition at 1 µM (CDK1/cyclin B): 25%
inhibition at 1 µM (BRAF V599E): 19%
inhibition at 1 µM (CLK2): 42%
inhibition at 1 µM (MAPK1 (ERK2)): 23%
inhibition at 1 µM (AURKB (Aurora B)): 11%
inhibition at 1 µM (MAPK8 (JNK1)): 58%
inhibition at 1 µM (CHEK2 (CHK2)): 4%
inhibition at 1 µM (DYRK1A): 2%
inhibition at 1 µM (IRAK1): -5%
SMILES: C[C@H]1CN(c2cc(-c3n[nH]c4ccc(OC5(C)CC5)cc34)ccn2)CCO1 [Example 28]

IC50 [1]: 20 nM
SMILES: c1cc(-c2n[nH]c3ccc(OC4COC4)cc23)cc(N2CCOCC2)n1 [Example 2]

IC50 [1]: 0.7 nM
SMILES: C[C@H]1[C@H](O)[C@@H](O)CN1c1cc(-c2n[nH]c3ccc(OC4(C)CC4)cc23)ccn1 [Example 34]

inhibition at 1 µM (JAK3): 37%
IC50 [1]: 0.9 nM
inhibition at 1 µM (CDK1/cyclin B): 9%
inhibition at 1 µM (BRAF V599E): 5%
inhibition at 1 µM (CLK2): 49%
inhibition at 1 µM (MAPK1 (ERK2)): 10%
inhibition at 1 µM (AURKB (Aurora B)): 6%
inhibition at 1 µM (MAPK8 (JNK1)): 39%
inhibition at 1 µM (CHEK2 (CHK2)): 8%
inhibition at 1 µM (DYRK1A): 3%
inhibition at 1 µM (IRAK1): -17%
SMILES: C[C@@H]1CN(c2cc(-c3n[nH]c4ccc(OC5(C)CC5)cc34)ccn2)C[C@H](C)O1 [Example 30]

IC50 [1]: 0.6 nM
SMILES: CC1(Oc2ccc3[nH]nc(-c4ccnc(N5CCN(S(C)(=O)=O)CC5)c4)c3c2)CC1 [Example 31]

IC50 [1]: 2 nM
SMILES: CC1(Oc2ccc3[nH]nc(-c4ccnc(N5CC[C@@H](N)C5)c4)c3c2)CC1 [Example 36]

IC50 [1]: 23 nM
SMILES: CO[C@H]1CN(c2cc(-c3n[nH]c4ccc(OC5CC5)cc34)ccn2)C[C@@H]1O [Example 10]

IC50 [1]: 17 nM
SMILES: c1cc(-c2n[nH]c3ccc(OC4CC4)cc23)cc(N2CCOC3(CC3)C2)n1 [Example 6]

IC50 [1]: 22 nM
SMILES: FC1(F)CCCN(c2cc(-c3n[nH]c4ccc(OC5CC5)cc34)ccn2)C1 [Example 20]

IC50 [1]: 30 nM
SMILES: FC1(F)CCN(c2cc(-c3n[nH]c4ccc(OC5CC5)cc34)ccn2)CC1 [Example 8]

IC50 [1]: 19 nM
SMILES: FC1(F)CCN(c2cc(-c3n[nH]c4ccc(OC5CC5)cc34)ccn2)C1 [Example 21]

IC50 [1]: 51 nM
SMILES: CS(=O)(=O)N1CCCN(c2cc(-c3n[nH]c4ccc(OC5CC5)cc34)ccn2)CC1 [Example 17]

IC50 [1]: 10 nM
SMILES: c1cc(-c2n[nH]c3ccc(OC4CC4)cc23)cc(N2CCC(n3cncn3)CC2)n1 [Example 12]

IC50 [1]: 1 nM
SMILES: CN1CCN(c2cc(-c3n[nH]c4ccc(OC5(C)CC5)cc34)ccn2)CC1=O [Example 33]

IC50 [1]: 29 nM
SMILES: O[C@H]1CCN(c2cc(-c3n[nH]c4ccc(OC5CC5)cc34)ccn2)C1 [Example 24]

IC50 [1]: 2.6 nM
SMILES: CC1(Oc2ccc3[nH]nc(-c4ccnc(N5CC[C@H](N)C5)c4)c3c2)CC1 [Example 37]

IC50 [1]: 1.1 nM
SMILES: C[C@H]1[C@H](N)[C@@H](O)CN1c1cc(-c2n[nH]c3ccc(OC4(C)CC4)cc23)ccn1 [Example 35]

IC50 [1]: 19 nM
SMILES: F[C@H]1CN(c2cc(-c3n[nH]c4ccc(OC5CC5)cc34)ccn2)C[C@@H]1F [Example 14]

IC50 [1]: 40 nM
SMILES: FC1(F)CN(c2cc(-c3n[nH]c4ccc(OC5CC5)cc34)ccn2)C1 [Example 25]

inhibition at 1 µM (JAK3): 56%
IC50 [1]: 0.6 nM
inhibition at 1 µM (CDK1/cyclin B): 33%
inhibition at 1 µM (BRAF V599E): 29%
inhibition at 1 µM (CLK2): 46%
inhibition at 1 µM (MAPK1 (ERK2)): 23%
inhibition at 1 µM (AURKB (Aurora B)): 15%
inhibition at 1 µM (MAPK8 (JNK1)): 61%
inhibition at 1 µM (CHEK2 (CHK2)): 14%
inhibition at 1 µM (DYRK1A): 6%
inhibition at 1 µM (IRAK1): 18%
SMILES: CC1(Oc2ccc3[nH]nc(-c4ccnc(N5CCOCC5)c4)c3c2)CC1 [Example 27]

IC50 [1]: 16 nM
SMILES: c1cnn(C2CCN(c3cc(-c4n[nH]c5ccc(OC6CC6)cc45)ccn3)CC2)c1 [Example 13]

IC50 [1]: 40 nM
SMILES: c1cc(-c2n[nH]c3ccc(OC4CC4)cc23)cc(N2CCOCC2)n1 [Example 1]

IC50 [1]: 54 nM
SMILES: c1cc(-c2n[nH]c3ccc(OC4CC4)cc23)cc(N2CCc3oc(C4CC4)nc3C2)n1 [Example 19]

IC50 [1]: 17 nM
SMILES: CO[C@H]1CCN(c2cc(-c3n[nH]c4ccc(OC5CC5)cc34)ccn2)C1 [Example 22]

IC50 [1]: 0.6 nM
SMILES: CN1CCN(c2cc(-c3n[nH]c4ccc(OC5(C)CC5)cc34)ccn2)CC1 [Example 32]

IC50 [1]: 44 nM
SMILES: [O-][S+]1CCCN(c2cc(-c3n[nH]c4ccc(OC5CC5)cc34)ccn2)CC1 (stereo not drawn) [Example 15]
